The record followed here is patent US7176230B2, “Synthesis of indole analogs of 1-benzyl-3-(5′-hydroxymethyl-2′-furyl) indazole (YC-1) as anti-platelet agents” (Industrial Technology Research Institute, priority 2004, dated 2007).

Molecules are shown by their SMILES.

Data set [1] concerns thrombin-induced platelet aggregation. As to the kind of experiment: Platelet aggregation induced by thrombin (turbidimetric, washed platelet suspension). To be noted: for IC50: rabbit platelets incubated with test compound at 37° C. for 1 min, then thrombin (0.1 unit/mL); for inhibition of thrombin-induced platelet aggregation (in words): discussion of Table 1. The data set is classed as cell-based, rabbit. Here is the method: (§1) Collagen (type 1, bovine Achilles tendon), obtained from Sigma Chemical Co., was homogenized in […] HOAc and stored at −70° C. Arachidonic acid, bovine serum albumin (BSA), EDTA (disodium salt), sodium citrate, dimethyl sulfoxide (DMSO), and platelet activating factor (PAF) were purchased from Sigma Chemical Co. Thrombin (bovine) was obtained from Parke-Davis Co. and dissolved in 50% (viv) glycerol to give a stock solution of 100 NIH units/mL.
(§2) Blood was collected from the rabbit marginal ear vein and was mixed with EDTA to a final concentration of 6 mM. It was centrifuged at 90 g for 10 min at room temperature, and the supernatant was obtained as platelet-rich plasma. The latter was further centrifuged at 500 g for 10 min. The platelet pellets were washed with Tyrode's solution without EDTA. After centrifugation at the same conditions, the platelet pellets were finally suspended in Tyrode's solution of the following composition (mM): NaCl (136.8), KCl (2.81, NaHCO3 (11.9), MgCl2 (1.1), NaH2PO4 (0.33), CaCl2 (1.0), and glucose (11.2). Platelet numbers were counted by Coulter Counter (Model ZM) and adjusted to 4.5×10^8 […].
(§3) Aggregation was measured by the turbidmetric method with a dual-channel Lumiaggregometer (Model 1020, Payton, Canada). All glassware was siliconized. One minute before the addition of the aggregation inducer, the platelet suspension was stirred at 900 rpm. The percentage of aggregation was calculated as described previously.

In data set [2] the test system is AA-induced platelet aggregation. As to the kind of experiment: Platelet aggregation induced by AA (turbidimetric, washed platelet suspension). The data set is classed as cell-based, rabbit. Particulars: for IC50: rabbit platelets incubated with test compound at 37° C. for 1 min, then AA (100 μM); for inhibition of AA-induced platelet aggregation (in words): discussion of Table 1. The method, then: as §1, §2, §3

Data set [3] has as its system collagen-induced platelet aggregation. Put plainly: Platelet aggregation induced by collagen (turbidimetric, washed platelet suspension). The data set is classed as cell-based, rabbit. To be noted: for IC50: rabbit platelets incubated with test compound at 37° C. for 1 min, then collagen (10 μg/mL); for inhibition of collagen-induced platelet aggregation (in words): discussion of Table 1. Here is the method:
as §1, §2, §3

Data set [4] has as its system PAF-induced platelet aggregation. Put plainly: Platelet aggregation induced by PAF (turbidimetric, washed platelet suspension). Particulars: for IC50: rabbit platelets incubated with test compound at 37° C. for 1 min, then PAF (2 ng/mL); for inhibition of PAF-induced platelet aggregation (in words): discussion of Table 1. The class given is cell-based, rabbit. Here is the method: as §1, §2, §3

The subject of another data set is platelet aggregation. As to the kind of experiment: Antiplatelet aggregation activity, overall statements over the four inducers. The data set is classed as cell-based, rabbit. Particulars: discussion of Table 1, all inducers. Here is the method: as §1, §2, §3
[5] abbreviates: Oryctolagus cuniculus, Platelet, 1 min.

In the case of `OCc1ccc(-c2nn(Cc3ccccc3)c3ccccc23)o1` [YC-1, 1-benzyl-3-(5′-hydroxymethyl-2′-furyl)indazole], the IC50 in data set [1] (setting [5]) came out at 180 µM; in data set [2] (setting [5]), 57 µM; in data set [3] (setting [5]) it was 54.6 µM; in data set [4] (setting [5]), 90 µM.

As to `COc1cccc(C(=O)n2cc(-c3ccc(CO)o3)c3ccccc32)c1` [Compound 33, N-(3′-Methoxybenzoyl)-3-(5′-hydroxymethyl-2′-furyl)indole], in data set [1], the “inhibition of thrombin-induced platelet aggregation (in words)” value is reported as “significant inhibition” and the half-inhibitory concentration (IC50) is 175 µM. Besides, the “anti-platelet activity overall (in words)” value in the data set on platelet aggregation is listed as “comparable with YC-1”. Further, in data set [2], the “inhibition of AA-induced platelet aggregation (in words)” value was “significant inhibition” and the IC50 worked out at 90.9 µM. Moreover, in data set [3], the “inhibition of collagen-induced platelet aggregation (in words)” value is “significant inhibition” and half-maximal inhibition (IC50) required 83.9 µM. In data set [4], the “inhibition of PAF-induced platelet aggregation (in words)” value was “significant inhibition” and the half-inhibitory concentration (IC50) worked out at 169 µM.

With `OCc1ccc(-c2nn(Cc3ccccc3)c3ccccc23)cc1` [YD-1, 1-benzyl-3-(4-hydroxymethylphenyl)indazole, reference compound], the IC50 in data set [1] (setting [5]) was found to be 193 µM; in data set [2] (setting [5]), 101 µM; in data set [3] (setting [5]), 123 µM; in data set [4] (setting [5]), 143 µM.

Turning to `OCc1ccc(-c2cn(Cc3ccccc3)c3ccccc23)cc1` [Compound 10, N-Benzyl-3-(4-hydroxymethylphenyl)indole], the melting point was 122 °C. In addition, the IC50 in data set [1] (setting [5]) was greater than 300 µM. The same molecule yielded an IC50 in data set [2] (setting [5]) greater than 300 µM. The IC50 in data set [3] (setting [5]) is 168 µM. For the same molecule, in data set [3], the “inhibition of collagen-induced platelet aggregation (in words)” value is on record as “inhibited”. Half-maximal inhibition in data set [4] (setting [5]) (IC50) was put at 170 µM. The “inhibition of PAF-induced platelet aggregation (in words)” value in data set [4] was “inhibited”.

On to `OCc1ccc(-c2cn(Cc3ccccc3)c3ccccc23)o1` [Compound 7, N-Benzyl-3-(5′-hydroxymethyl-2′-furyl)indole], for which the IC50 in data set [1], in data set [2], in data set [3] and in data set [4] was greater than 300 µM in each case. Also, the “anti-platelet activity overall (in words)” value with platelet aggregation is “nearly no anti-platelet activity”.

For `OCc1ccc(-c2cn(Cc3ccccc3)c3ccccc23)s1` [Compound 8, N-Benzyl-3-(5′-hydroxymethyl-2′-thienyl)indole], the IC50 in data set [1], in data set [2], in data set [3] and in data set [4] was greater than 300 µM each time. Moreover, in the data set with platelet aggregation, the “anti-platelet activity overall (in words)” value was “did not improve its activity”.

Turning to `O=S(=O)(c1ccccc1)n1cc(-c2ccc(CO)s2)c2ccccc21` [Compound 17, N-Benzenesulfonyl-3-(5′-hydroxymethyl-2′-thienyl)indole], in data set [1], the “inhibition of thrombin-induced platelet aggregation (in words)” value was “impaired its inhibitory activity” and the 50% inhibitory concentration (IC50) is greater than 300 µM. Besides, in data set [2], the “inhibition of AA-induced platelet aggregation (in words)” value was “excellent inhibitory activity” and the IC50 was found to be 154 µM. Moreover, in data set [3], the “inhibition of collagen-induced platelet aggregation (in words)” value is recorded as “excellent inhibitory activity” and the midpoint of inhibition, the IC50, lay at 131 µM. Moreover, in data set [4], the “inhibition of PAF-induced platelet aggregation (in words)” value is reported as “excellent inhibitory activity” and it took 171 µM to reach half-maximal inhibition (IC50).

Consider `O=C(c1ccccc1)n1cc(-c2ccc(CO)o2)c2ccccc21` [Compound 32, N-Benzoyl-3-(5′-hydroxymethyl-2′-furyl)indole], for which, in data set [1], the “inhibition of thrombin-induced platelet aggregation (in words)” value was “inefficient” and the IC50 was greater than 300 µM. For the same molecule, in data set [2], the “inhibition of AA-induced platelet aggregation (in words)” value is reported as “excellent inhibitory activity” and half-maximal inhibition (IC50) required 38.2 µM. Also, in data set [3], the “inhibition of collagen-induced platelet aggregation (in words)” value is reported as “excellent inhibitory activity” and it took 51.1 µM to reach half-maximal inhibition (IC50). In data set [4], the “inhibition of PAF-induced platelet aggregation (in words)” value is recorded as “inefficient” and the IC50 was greater than 300 µM.

In the case of `COc1ccc(C(=O)n2cc(-c3ccc(CO)o3)c3ccccc32)cc1` [Compound 34, N-(4′-Methoxybenzoyl)-3-(5′-hydroxymethyl-2′-furyl)indole], in data set [1], the “inhibition of thrombin-induced platelet aggregation (in words)” value is “poor inhibition” and the IC50 is greater than 300 µM. Further, in data set [2], the “inhibition of AA-induced platelet aggregation (in words)” value is given as “potent inhibition” and the IC50 was determined as 2.9 µM. Further, in data set [3], the “inhibition of collagen-induced platelet aggregation (in words)” value is “potent inhibition” and the midpoint of inhibition, the IC50, lay at 30.9 µM. For the same molecule, in data set [4], the “inhibition of PAF-induced platelet aggregation (in words)” value is given as “poor inhibition” and the IC50 came out at 270 µM.

For `O=S(=O)(c1ccccc1)n1cc(-c2ccc(CO)o2)c2ccccc21` [Compound 16, N-Benzenesulfonyl-3-(5′-hydroxymethyl-2′-furyl)indole], in data set [1], the “inhibition of thrombin-induced platelet aggregation (in words)” value is “significant inhibition” and the midpoint of inhibition, the IC50, lay at 173 µM. Also, in data set [2], the “inhibition of AA-induced platelet aggregation (in words)” value was “significant inhibition” and half-maximal inhibition (IC50) required 94.9 µM. Further, in data set [3], the “inhibition of collagen-induced platelet aggregation (in words)” value is given as “significant inhibition” and the IC50 stood at 73.7 µM. In data set [4], the “inhibition of PAF-induced platelet aggregation (in words)” value is listed as “significant inhibition” and the IC50 was 164 µM.
